The record followed here is PubChem BioAssay (NCI).

Several values for one entry are separate records, joined by “and”; a condition that tells them apart may be missing. Identical values can stand only once.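 Grown in 96-well plates, cells were treated for 48 hours with each compound at five concentrations. Insufficient inhibition: endpoint recorded as highest concentration tested. GI50 is the concentration that inhibits growth by half. TGI is the concentration that stops growth completely.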 Some results are limits rather than exact numbers.

Some test systems named below: NCI-H460 lung; A498 renal; ACHN renal; SNB-75 CNS; SK-MEL-2 melanoma; MDA-MB-231 breast; OVCAR-8 ovarian; HS 578T breast; OVCAR-4 ovarian; M14 melanoma.
Holding throughout (assay): inhibition of tumour cell growth, NCI panel, 48 h

Consider `COc1ccc(-c2nn(-c3cccc(Cl)c3)cc2/C=C2\C(=N)N(c3ccccc3)N=C2N)cc1`, for which the GI50 is 0.445 µM in the assay on NCI-H460 lung; 11.2 µM in the assay on A498 renal; 0.95 µM in the assay with ACHN renal; 18.8 µM in the assay on SNB-75 CNS; 1.66 µM with SK-MEL-2 melanoma; 1.25 µM in the assay on MDA-MB-231 breast. Also, the GI50 was 1.12 µM in the assay with OVCAR-8 ovarian, 19.6 µM with HS 578T breast, 2.13 µM in the assay with OVCAR-4 ovarian and 0.331 µM in the assay with M14 melanoma. For the same compound, the TGI was 7.4 µM in the assay with NCI-H460 lung; more than 78.8 µM in the assay with A498 renal; 42.6 µM with ACHN renal; 98.6 µM with SNB-75 CNS; 12.6 µM in the assay on SK-MEL-2 melanoma; 28.7 µM with MDA-MB-231 breast. The TGI with OVCAR-8 ovarian was more than 100 µM; with HS 578T breast it was more than 100 µM; in the assay on OVCAR-4 ovarian it was more than 89.1 µM; with M14 melanoma it was 5.42 µM.

In the case of `CCCC(=O)Nc1cn(COC)c(C(=O)N2C[C@H]3C[C@@]34C2=CC(=O)c2[nH]cc(C)c24)n1`, the TGI in the assay on NCI-H460 lung was 15.9 µM and 28.7 µM; in the assay with A498 renal, 17.9 µM; with ACHN renal, 50 µM and > 100 µM; in the assay with SNB-75 CNS, 21.6 µM and > 100 µM; with SK-MEL-2 melanoma it was 50 µM and > 100 µM; with MDA-MB-231 breast, 39.7 µM and > 100 µM. Moreover, the TGI was 14.6 µM and 20.1 µM in the assay with OVCAR-8 ovarian; 43.1 µM and > 100 µM with HS 578T breast; 30 µM and 36.5 µM with OVCAR-4 ovarian; 50 µM and > 100 µM with M14 melanoma. Besides, the GI50 in the assay with SNB-75 CNS is 32 µM; with SK-MEL-2 melanoma, 7.39 µM; in the assay with MDA-MB-231 breast, 10.7 µM; with HS 578T breast it was 20.9 µM; with M14 melanoma, 7.14 µM.

`COc1ccc(-c2nn(-c3cccc(Cl)c3)cc2-c2cc(-c3cccs3)no2)cc1`: the GI50 in the assay on NCI-H460 lung is 3.42 µM; in the assay on A498 renal, 1.81 µM; in the assay on ACHN renal, 4.39 µM; in the assay on SNB-75 CNS, 3.52 µM; in the assay on SK-MEL-2 melanoma it was 3.34 µM; in the assay on MDA-MB-231 breast, 3.08 µM. Further, the GI50 in the assay on OVCAR-8 ovarian is 4.04 µM; with HS 578T breast, 4.42 µM; in the assay on OVCAR-4 ovarian, 4.48 µM; in the assay with M14 melanoma it was 3.3 µM. Besides, the TGI in the assay on NCI-H460 lung was 16.6 µM; in the assay with A498 renal, 14.6 µM; in the assay with ACHN renal it was more than 100 µM; in the assay on SNB-75 CNS it was 34.7 µM; in the assay with SK-MEL-2 melanoma it was 10.9 µM; in the assay with MDA-MB-231 breast, 16.9 µM. The TGI in the assay on OVCAR-8 ovarian came out at 36 µM; with HS 578T breast it was 45.5 µM; in the assay with OVCAR-4 ovarian it was 36.4 µM; in the assay with M14 melanoma, 17.1 µM.

For `COC(=O)C1=C(C(=O)OC)C(C(=O)OC)C(C(=O)OC)C(C(=O)OC)(C(=O)OC)C(C(=O)OC)=C1C(=O)OC` (stereo not drawn), the TGI in the assay with NCI-H460 lung is 37.4 µM; with A498 renal, 29.3 µM; with ACHN renal it was 28.4 µM; with SNB-75 CNS, 34.5 µM; with SK-MEL-2 melanoma, 35.1 µM; in the assay with MDA-MB-231 breast, 40.1 µM. Moreover, the TGI was 25.2 µM in the assay with OVCAR-8 ovarian, 75.3 µM in the assay on HS 578T breast, more than 52 µM with OVCAR-4 ovarian and 29.8 µM in the assay on M14 melanoma.

For `O=C(Nc1cccc(Cl)c1)c1cc(Cl)ccc1O`, the GI50 in the assay with NCI-H460 lung was 0.488 µM; in the assay on A498 renal, 0.256 µM; in the assay with ACHN renal, 1.14 µM; in the assay with SNB-75 CNS, 0.756 µM; with SK-MEL-2 melanoma, 0.294 µM; in the assay with MDA-MB-231 breast, 1.15 µM. The GI50 in the assay with OVCAR-8 ovarian is 1.51 µM; in the assay on HS 578T breast, 0.282 µM; in the assay on OVCAR-4 ovarian, 1.46 µM; in the assay with M14 melanoma it was 0.851 µM. In addition, the TGI in the assay with NCI-H460 lung was found to be 6.4 µM; in the assay on A498 renal, 0.764 µM; in the assay on ACHN renal it was 10.6 µM; in the assay on SNB-75 CNS, 3.86 µM; in the assay with SK-MEL-2 melanoma, 0.918 µM; with MDA-MB-231 breast, 8.23 µM. The TGI in the assay on OVCAR-8 ovarian was 5.43 µM; in the assay with HS 578T breast, 1.46 µM; in the assay with OVCAR-4 ovarian it was more than 100 µM; in the assay on M14 melanoma, 5.4 µM.

On to `Oc1cccc(-c2nc(N3CCOCC3)c3oc4ncccc4c3n2)c1`, for which the GI50 is 0.359 µM and 0.419 µM in the assay on NCI-H460 lung; 1.96 µM with A498 renal; 0.0878 µM and 0.164 µM in the assay with ACHN renal; 0.0401 µM and < 0.0151 µM with SNB-75 CNS; 0.147 µM and 0.295 µM with SK-MEL-2 melanoma; 0.34 µM and 0.3 µM in the assay with MDA-MB-231 breast. Also, the GI50 was 0.238 µM and 0.193 µM with OVCAR-8 ovarian; 0.0576 µM and 0.0526 µM in the assay with HS 578T breast; 0.354 µM and 0.228 µM in the assay on OVCAR-4 ovarian; 0.127 µM and 0.152 µM in the assay with M14 melanoma. The TGI with NCI-H460 lung was more than 100 µM; with A498 renal it was 9.35 µM and 3.98 µM; with SNB-75 CNS, 0.311 µM and 0.114 µM; with SK-MEL-2 melanoma, 0.641 µM and 1.92 µM; with MDA-MB-231 breast it was 54.5 µM and 33.2 µM; in the assay on OVCAR-8 ovarian, 6.75 µM. The TGI with HS 578T breast is 2.94 µM and 0.409 µM; with OVCAR-4 ovarian, 4.12 µM and 2.9 µM.

With `COc1cc(/C=C2\C(=O)Nc3ccc(Br)cc32)cc(OC)c1OC`, the GI50 is 8.76 µM with NCI-H460 lung; 13.7 µM with A498 renal; 31.9 µM in the assay on ACHN renal; 4.01 µM in the assay with SNB-75 CNS; 12.9 µM in the assay with SK-MEL-2 melanoma; 7.68 µM with MDA-MB-231 breast. Moreover, the GI50 in the assay with OVCAR-8 ovarian was 34.3 µM; in the assay on HS 578T breast, 2.94 µM; in the assay with OVCAR-4 ovarian, more than 29 µM; with M14 melanoma it was 15.7 µM. The TGI was more than 100 µM in the assay on NCI-H460 lung; more than 55.8 µM with A498 renal; more than 100 µM in the assay with ACHN renal; 14.5 µM in the assay on SNB-75 CNS; 55.2 µM in the assay on SK-MEL-2 melanoma; more than 52.9 µM with MDA-MB-231 breast. The TGI was more than 100 µM in the assay with OVCAR-8 ovarian, more than 78.7 µM in the assay with HS 578T breast, more than 100 µM in the assay on OVCAR-4 ovarian and more than 100 µM with M14 melanoma.

As to `Cc1cc(C)c2nccc(NCCCN(C)C)c2c1[N+](=O)[O-]`, the TGI in the assay with NCI-H460 lung was more than 100 µM; in the assay on A498 renal, more than 100 µM; in the assay on ACHN renal it was more than 100 µM; in the assay on SNB-75 CNS, more than 100 µM; with SK-MEL-2 melanoma, 58.8 µM; in the assay with MDA-MB-231 breast, more than 100 µM. Moreover, the TGI in the assay with OVCAR-8 ovarian is more than 100 µM; in the assay on HS 578T breast, more than 100 µM; in the assay on OVCAR-4 ovarian, 30.2 µM; in the assay with M14 melanoma, 33.7 µM.
